Results published in ChEMBL document CHEMBL1153206, “Evaluation of pyrrolin-2-one derivatives synthesized by a new practical method as inhibitors of plasminogen activator inhibitor-1 (PAI-1)” (Bioorg Med Chem Lett, 2010).

Legend:
[1] = target: T1, Plasminogen activator inhibitor 1 (Homo sapiens, UniProt P05121); assay: Inhibition of human PAI1
[2] = target: T1, Plasminogen activator inhibitor 1; assay: Inhibition of human PAI1 at 15 uM
[3] = target: T1, Plasminogen activator inhibitor 1; assay: Inhibition of human PAI1 at 10 uM

T1 sequence (P05121 whole entry): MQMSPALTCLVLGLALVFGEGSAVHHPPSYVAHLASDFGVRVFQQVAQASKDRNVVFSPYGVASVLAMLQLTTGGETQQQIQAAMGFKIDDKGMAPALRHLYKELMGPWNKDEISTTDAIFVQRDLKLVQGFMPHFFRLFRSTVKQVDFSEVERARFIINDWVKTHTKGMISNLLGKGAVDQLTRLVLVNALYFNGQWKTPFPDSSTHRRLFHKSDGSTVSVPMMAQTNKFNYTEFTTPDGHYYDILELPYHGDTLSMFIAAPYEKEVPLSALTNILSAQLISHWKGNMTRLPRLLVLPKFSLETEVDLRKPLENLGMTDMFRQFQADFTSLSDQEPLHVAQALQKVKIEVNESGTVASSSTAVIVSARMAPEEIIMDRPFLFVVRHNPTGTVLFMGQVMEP

COc1ccccc1C1=C(c2ccccc2)C(=O)N/C1=C\c1ccc(/C=C/C(=O)O)o1
IC50 [1]: 0.65 µM

N#C/C=C/c1ccc(/C=C2\NC(=O)C(c3ccccc3)=C2c2ccco2)o1
IC50 [1]: 1.2 µM

COc1ccccc1C1=C(c2ccccc2)C(=O)N/C1=C\c1ccc(C)o1
IC50 [1]: 0.94 µM

O=C(O)COc1cccc(/C=C2\NC(=O)C(c3ccccc3)=C2c2ccccc2)c1
IC50 [1]: 9.6 µM

COc1ccc(C2=C(c3ccco3)/C(=C/c3ccncc3)NC2=O)cc1OC
IC50 [1]: 7.8 µM

O=C1N/C(=C\c2ccc(C(=O)O)o2)C(c2ccco2)=C1c1ccccc1
inhibition [2]: 34%

O=C(O)/C=C/c1ccc(/C=C2\NC(=O)C(c3ccccc3)=C2c2ccco2)o1
IC50 [1]: 1.5 µM

COc1ccc(C2=C(c3cccs3)/C(=C/c3ccc(/C=C/C(=O)O)o3)NC2=O)cc1OC
IC50 [1]: 0.69 µM

COc1ccc(C2=C(c3ccco3)/C(=C/c3ccc(/C=C/C(=O)O)o3)NC2=O)cc1OC
IC50 [1]: 1.1 µM

O=C1N/C(=C\c2ccco2)C(c2ccco2)=C1c1ccccc1
inhibition [3]: 36%
